Patent US20210017607A1, “Methods of Predicting Responsiveness to Cancer Therapies” (The University of Chicago, priority 2019, published 2021)
“Also recorded” adds a separate entry of the source.

Key:
[1] = test system: Myc-CAP (STING^lo) tumors; experiment: Myc-CAP syngeneic tumor growth; assay type: in vivo, mouse; conditions: for effect of concomitant agent on anti-tumor response elicited by degarelix/rucaparib/buparlisib (ADT/PARPi/PI3Ki): syngeneic mice
Procedure: FIGS. 25A and 25B. […] (25A-25B) Myc-CAP (STING^lo) tumor-bearing syngeneic mice were treated with the indicated drug(s) until untreated tumors reached approx. 2500 mm^3. Tumor volume curves for duration of treatment are shown.
FIGS. 26A-26D. […] Immunodeficient athymic nude (26A) and NOD-SCID (26B) mice were engrafted with Myc-CAP (STING^lo) tumors and treated with the indicated drug(s) until untreated tumors reached approx. 2000 mm^3. Tumor volume curves for duration of treatment are shown. For 26A-26B, n=3-4 mice per group. (26C-26D) Single-cell suspensions were generated from harvested tumors and analyzed by flow cytometry for the indicated immune cell populations and their activation states. Data are represented relative to CD45+ immune cells. For 26C-26D, n=3-5 animals per treatment group from 2 independent experiments. Significance/p-values were calculated by […].
FIGS. 29A-29M. […] Myc-CAP cancer cells were treated with the indicated drugs singly or in combination for 36 hours. (29A) Cells were stained with anti-mouse specific p-γH2AX antibody and a fluorescently labeled secondary antibody for determination of DNA DSBs, which were quantified by confocal microscopy. (29B) Protein extracts from cells in 29A were analyzed for the indicated pharmacodynamic biomarkers by western blotting; (29C) Annexin V-PI staining was done to assess frequency of live cells (Annexin V^− PI^−) following drug treatment. (29D) Ultracentrifugation was utilized to purify microvesicles (MVs) from supernatants in treatment groups in (29A) and associated DNA DSBs was quantified by Nanodrop®. Independent experiments n=2. (29E) Ultracentrifugation was utilized to purify MVs from supernatants in indicated treatment groups in FIG. 17A, and associated DNA DSBs were quantified by Nanodrop®; n=2 independent experiments. (29F) Syngeneic mice were engrafted with Myc-CAP (STING^lo) cells, and tumors were harvested when the tumor volume reached 400 mm^3. Single cell suspensions of the tumors were treated with the indicated drug(s), in the presence or absence of GW4869 (MV biogenesis inhibitor). (29G) Bone marrow derived macrophage (BMDMs) were co-cultured for 30 hours with supernatants (−/+ exogenous 50 units of DNase I pre-treatment for 30 minutes) from Myc-CAP cells that were treated with the indicated drug(s) for 36 hours. (29H) cGAMP (10 μg/mL) was pre-incubated with 10 units of DNAse I or mock control for 30 minutes and then added to BMDMs for 30 hours. (29I-29L) STING^+/+/STING^−/− BMDMs were co-cultured for 36 hours with supernatants from Myc-CAP and B6-Myc cancer cells that were treated with the indicated drug(s) for 36 hours. Supernatants were collected from 29F-29L at the end of treatment and analyzed for IFNβ1 by ELISA. (29M) Myc-CAP (STING^lo) tumor-bearing mice were treated with the indicated drug(s) until tumors first reached approx. 2500 mm^3. For the degerelix/rucaparib/buparlisib combination, additional cohorts of mice underwent concomitant treatment with STING antagonist H-151 or GW4869. Tumor volume was recorded daily for duration of experiment. For in vitro experiments, n=2 independent experiments and for in vivo experiments n=3-4 animals /group.

Myc-CAP-PTEN^−/− cells = experiment: Myc-CAP-PTEN−/− cells in vitro (western blotting, cytokine array); assay type: cell-based, mouse; conditions: 1 μM, 24 hours
Procedure: FIGS. 35A-35D. […] (35A) Myc-CAP-PTEN^−/− cells were treated with copanlisib […] (IC90 concentration) in vitro for 24 hours, and protein extracts were harvested for western blotting analysis with the indicated antibodies to analyze PI3K activation. (35B) Supernatants from (35A) were harvested for cytokine array profiling. n=3 independent in vitro experiments. (35C) Mice bearing Myc-CAP-PTEN^−/− established syngeneic tumors (200 mm^3) were treated with copanlisib (14 mg/kg, every other day, until tumors reached 2000 mm^3). Tumor volumes were monitored daily and graphed. (35D) At the end of treatment, tumors were analyzed by flow cytometry for tumor infiltrating immune cell subsets. n=5 mice per group.
FIGS. 49A and 49B. PTEN-deficient cancer cells have diminished STING expression that can be restored by […] and pan-PI3K inhibitors. (49A) Isogenic MC38, Myc-CAP, ID8, and TRAMP cells (−/+ PTEN) were analyzed for STING mRNA and protein expression by qRT-PCR and western blotting, respectively. (49B) Myc-CAP-PTEN^−/− cells were treated with GSK′771 (PI3Kβ-selective inhibitor, 1 μM) or BKM120 (pan-PI3K inhibitor, 1 μM) for 24 hours, and proteins were analyzed for STING expression and PI3K activation by western blotting.
Cancer Cell Lines and in vitro drug treatments. Transgenic c-myc^hi prostate tumor derived cell line, Myc-CAP and TRAMPC1, ovarian cancer cell line ID8 and murine colon adenocarcinoma line MC38 were obtained from the American Type Culture Collection (ATCC) and passaged in either 1×RPMI/1×DMEM (with phenol) or 1×DMEM (without phenol red) containing 10% fetal bovine serum, 1% penicillin-streptomycin, 2% L-glutamine and 1×ITS. ID8^pten−/−p53−/−cells were a kind gift from Dr. Ian McNeish (Imperial College, London). For generation of STING over expressing cell lines −Myc-CAP^pten+/+ and ID8^pten−/− cells were transfected with commercial available plasmid (DC-Mm22462-SH02, Genecoepia™), sorted and expanded as per protocol. […]

[2] = IC90 concentrations stated for in vitro/ex vivo drug treatments; conditions: FIG. 50, Myc-CAP-PTEN^−/− tumor suspensions; read-out: IC90 concentration
[3] = test system: single cell suspensions derived from Myc-CAP (STING^lo) tumors; experiment: Ex vivo reconstitution assay, IFNβ ELISA; assay type: cell-based, mouse; conditions: ex vivo
Procedure: FIGS. 15A-15E. Differential STING pathway activation within B6-Myc (STING^hi) cell lines and BMDMs relative to Myc-CAP (STING^lo) cells. (15A, 15B) The indicated cancer cell lines and BMDMs were treated with DMXAA (mouse STING agonist) for 1 and 24 hours, respectively, and protein extracts were interrogated for cGAS/STING pathway activation with the indicated antibodies by Western blotting. Supernatants were collected from for IFNβ1 ELISA following 36 hours of treatment with DMXAA (15C, 15D). (15E) Syngeneic Myc-CAP (STING^lo) tumors were processed into single cell suspensions and used for phycoerythrin-based sorting of CD45+ cellular fractions. Equal numbers of cells from these fractions were stimulated with DMXAA. Supernatants were collected at 36 hrs for detection of IFNB1 by ELISA; n=3 independent experiments; Significance/p-values were calculated by one-way Anova (for 15C & 15E) or paired t-test (for 15D); TAM=tumor associated macrophage; s.e.=short exposure; l.e.=long exposure.
FIGS. 29A-29M. PARPi alone induces DNA DSBs, but not apoptosis even in combination with PI3Ki in Myc-CAP (STING^lo) cancer cells; PARPi/PI3Ki combination induces intracellular DNA DSBs and proportionate release of MV surface-associated DNA DSBs from B6-Myc (STINGhi) cancer cells without affecting cellular viability; PARPi/PI3K treatment activates tumor-cell extrinsic cGAS/STING pathway within TAMs in vivo via MV surface-associated DNA DSBs released from tumor cells. Myc-CAP cancer cells were treated with the indicated drugs singly or in combination for 36 hours. (29A) Cells were stained with anti-mouse specific p-γH2AX antibody and a fluorescently labeled secondary antibody for determination of DNA DSBs, which were quantified by confocal microscopy. (29B) Protein extracts from cells in 29A were analyzed for the indicated pharmacodynamic biomarkers by western blotting; (29C) Annexin V-PI staining was done to assess frequency of live cells (Annexin V^− PI^−) following drug treatment. (29D) Ultracentrifugation was utilized to purify microvesicles (MVs) from supernatants in treatment groups in (29A) and associated DNA DSBs was quantified by Nanodrop®. Independent experiments n=2. (29E) Ultracentrifugation was utilized to purify MVs from supernatants in indicated treatment groups in FIG. 17A, and associated DNA DSBs were quantified by Nanodrop®; n=2 independent experiments. (29F) Syngeneic mice were engrafted with Myc-CAP (STING^lo) cells, and tumors were harvested when the tumor volume reached 400 mm^3. Single cell suspensions of the tumors were treated with the indicated drug(s), in the presence or absence of GW4869 (MV biogenesis inhibitor). (29G) Bone marrow derived macrophage (BMDMs) were co-cultured for 30 hours with supernatants (−/+ exogenous 50 units of DNase I pre-treatment for 30 minutes) from Myc-CAP cells that were treated with the indicated drug(s) for 36 hours. (29H) cGAMP (10 μg/mL) was pre-incubated with 10 units of DNAse I or mock control for 30 minutes and then added to BMDMs for 30 hours. (29I-29L) STING^+/+/STING^−/− BMDMs were co-cultured for 36 hours with supernatants from Myc-CAP and B6-Myc cancer cells that were treated with the indicated drug(s) for 36 hours. Supernatants were collected from 29F-29L at the end of treatment and analyzed for IFNβ1 by ELISA. […] Tumor volume was recorded daily for duration of experiment. […] Significance/p-values were calculated by one-way ANOVA. […]

BMDMs = experiment: BMDM co-culture with supernatants from drug-treated cancer cells; assay type: cell-based, mouse; conditions: cGAMP 10 μg/mL, 30 hours
From the text: FIGS. 29A-29M. PARPi alone induces DNA DSBs, but not apoptosis even in combination with PI3Ki in Myc-CAP (STING^lo) cancer cells; PARPi/PI3Ki combination induces intracellular DNA DSBs and proportionate release of MV surface-associated DNA DSBs from B6-Myc (STINGhi) cancer cells without affecting cellular viability; PARPi/PI3K treatment activates tumor-cell extrinsic cGAS/STING pathway within TAMs in vivo via MV surface-associated DNA DSBs released from tumor cells. Myc-CAP cancer cells were treated with the indicated drugs singly or in combination for 36 hours. (29A) Cells were stained with anti-mouse specific p-γH2AX antibody and a fluorescently labeled secondary antibody for determination of DNA DSBs, which were quantified by confocal microscopy. (29B) Protein extracts from cells in 29A were analyzed for the indicated pharmacodynamic biomarkers by western blotting; (29C) Annexin V-PI staining was done to assess frequency of live cells (Annexin V^− PI^−) following drug treatment. (29D) Ultracentrifugation was utilized to purify microvesicles (MVs) from supernatants in treatment groups in (29A) and associated DNA DSBs was quantified by Nanodrop®. Independent experiments n=2. (29E) Ultracentrifugation was utilized to purify MVs from supernatants in indicated treatment groups in FIG. 17A, and associated DNA DSBs were quantified by Nanodrop®; n=2 independent experiments. […]

IC90 [2]	SMILES	effect of concomitant agent on anti-tumor response elicited by degarelix/rucaparib/buparlisib (ADT/PARPi/PI3Ki) [1]	other results
	CCc1ccc(NC(=O)Nc2c[nH]c3ccccc23)cc1 [H-151]	abrogated the anti-tumor response	effect of concomitant agent on anti-tumor response elicited by PARPi/PI3Ki ([1]; c-myc driven murine PC models, immunocompetent mice): abrogated
500 nM	Cc1c(Cn2c(C)nc3c(C(=O)O)cc(N4CCOCC4)cc32)cccc1C(F)(F)F [GSK771]		STING expression (western blotting) (Myc-CAP-PTEN^−/− cells): restored
500 nM	C[C@H](NC(=O)c1c(N)nn2cccnc12)c1cc2cccc(C#Cc3cnn(C)c3)c2c(=O)n1-c1ccccc1 [IPI549]		
	O=C(/C=C/c1ccc(/C=C/C(=O)Nc2ccc(C3=NCCN3)cc2)cc1)Nc1ccc(C2=NCCN2)cc1 [GW4869]	abrogated the anti-tumor response; also recorded: significant abrogation	effect of concomitant agent on IFNβ / Type I IFN production following rucaparib/buparlisib (PARPi/PI3Ki) [3]: abolished the IFNβ production; also recorded: Significant down-regulation of Type I IFN production
	Nc1nc2c(ncn2[C@@H]2O[C@@H]3COP(=O)(O)O[C@H]4[C@@H](O)[C@H](n5cnc6c(N)ncnc65)O[C@@H]4COP(=O)(O)O[C@@H]2[C@@H]3O)c(=O)[nH]1 [cGAMP, cyclic guanosine monophosphate-adenosine monophosphate]		Type I IFN production within BMDMs after DNase I pre-treatment of the agent (BMDMs): did not abrogate the Type I IFN production
